# Patent publication US9636379B2, “Compositions and methods for treating pruritus” (Washington University, priority 2007, dated 2017)
# Where no end group is shown, it is not given here.
# Experiments:
# VR1 vanilloid receptor [1] = target: T1, VR1 vanilloid receptor (Mus musculus, UniProt Q704Y3)
# VR1 vanilloid receptor [2] = target: T1, VR1 vanilloid receptor; assay: Depletion of primary fibers by intrathecal resiniferatoxin (immunocytochemistry); type: in vivo, mice; design: An approximate 80% of GRP+ neurons express TRPV1, a vanilloid receptor important for detecting thermal and chemical stimuli in the DRGs; endogenous in cells; host or cells: living mice, TRPV1+ primary afferent fibers (intrathecal RTX)
# Source text: FIG. 32A-L depicts micrographs showing that peptidergic but not non-peptidergic fibers were depleted by resiniferatoxin (RTX) treatment. […] The IB4 positive non-peptidergic fibers remain the same after RTX treatment (C) compared with the control group (D). […] GRP+ fibers are almost lost in the RTX treated group (I) compared with the control group (J). TRPV1 staining is lost after RTX treatment (K) compared to the control group (L).
# An approximate 80% of GRP+ neurons express TRPV1, a vanilloid receptor important for detecting thermal and chemical stimuli in the DRGs (FIG. 31). […] Non-peptidergic primary fibers labeled by IB4-FITC are normal (FIG. 32C, D). […] Motor function is not affected by the depletion of TRPV1+ primary fibers (FIG. 33B).
# Mice were given resiniferatoxin (Sigma, 25 ng/5 ul) or vehicle intrathecally under isoflurane-induced anesthesia. The behavior was tested 3-5 days later.
# NMBR/GRPR = type: in vivo; details: NMBR/GRPR double knockout mice; for response to intrathecal bombesin-like peptides: GRP (1 nM), Bombesin (0.05 nM), NMB (2 nM); for response to i.d. pruritogens: i.d. in 50 μl
# Method: FIG. 44 depicts the itch behavior of NMBR/GRPR double knockout mice in response to 3 different bombesin-like peptides. […] GKO, GRPR mutant mice; DKO, NMBR/GRPR double KO mice.
# (A), (C), (E), (G) and (I) are time course curve, while (B), (D), (F), (H) and (J) represent the total value comparisons from the same experiment. *p<0.05, **p<0.01; One-way ANOVA followed by Newman-Keuls post hoc test was used in all statistical analysis.
# Histamine was injected i.d. in 50 μl at 20 μg/mouse. Compound 48/80 was injected i.d. in 50 μl at 20 μg/mouse. ET-1 was injected i.d. in 50 μl at 1 ng/mouse. […] Serotonin (5-HT) was injected i.d. in 50 μl at 1 1 nmol/μl.
# GRPR [3] = target: T2, GRPR (Mus musculus, UniProt P21729); assay: Scratching behavior after intrathecal injection of GRPR agonist GRP18-27; type: in vivo, mice
# T2 construct: GRP acts through spinal GRPR to mediate the transmission of information that drives scratching behavior; endogenous in cells; host or cells: living mice (C57BL/6J / wild-type littermates), spinal dorsal horn neurons reached by intrathecal injection
# Method: (§1) FIG. 7A-E depicts graphs showing the effect of GRPR agonist and antagonist on scratching behavior. (A) Scratching behavior is monitored after intrathecal (i.t.) injection of GRP18-27 (0.03, 0.1 or 1.0 nmol/5 μl). GRP18-27 induced dose-dependent scratching behavior in wild-type mice (n=7; open circles). […] ANOVA; **P<0.01. […] ANOVA; *P<0.05.
# (§2) To determine whether an activation of GRPR in the spinal cord may facilitate the transmission of itch signals, which would subsequently result in increased scratching behavior, the GRPR agonist GRP18-27 was intrathecally administered (Ladenheim et al., 1996).
# GRPR [4] = assay: as above; type: in vivo, mice; details: GRPR mutant mice compared with wild-type
# Method: as §1, §2
# 5-HT fibers = assay: Morphine-induced scratching after 5,7-DHT; type: in vivo, mice; details: vs saline vehicle
# Source text: Repeated measures analysis of variance (ANOVA); *P<0.05, n=5-11.
# GRPR [5] = type: in vivo; details: GRPR mutant mice compared to wild-type mice
# Source text: All data are presented as means±s.e.m.
# FIG. 17A-C depicts scratching behavior induced by i.d. injection of histamine, endothelin-1 or 5-HT in GRPR mutant (black bars) and wild-type mice (white bars).
# To ascertain whether GRPR is required for itch sensation, we studied the effects of several pruritogenic agents in GRPR mutant mice and wild-type mice.
# NMBR = target: T3, NMBR (Mus musculus, UniProt O54799); assay: Effect of NMBR antagonist on NMB-, GRP- and chloroquine-evoked scratching; type: in vivo, mice
# T3 construct: NMBR is expressed in the most superficial layer of the dorsal spinal cord; endogenous in cells; host or cells: living wild-type mice, spinal cord (intrathecal injection)
# T3 sequence (O54799 1-390): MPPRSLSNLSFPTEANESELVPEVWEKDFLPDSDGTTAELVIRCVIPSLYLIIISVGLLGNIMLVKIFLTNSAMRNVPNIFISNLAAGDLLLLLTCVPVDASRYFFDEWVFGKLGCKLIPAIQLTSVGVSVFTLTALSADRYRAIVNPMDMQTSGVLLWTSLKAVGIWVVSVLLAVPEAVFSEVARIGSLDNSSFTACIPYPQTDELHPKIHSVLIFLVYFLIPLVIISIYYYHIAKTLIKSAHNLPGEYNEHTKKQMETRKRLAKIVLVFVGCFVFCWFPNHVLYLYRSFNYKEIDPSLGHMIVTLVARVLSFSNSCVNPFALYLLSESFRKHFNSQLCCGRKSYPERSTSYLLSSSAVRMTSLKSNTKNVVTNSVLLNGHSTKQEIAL
# Method: (B) Dose response experiment depicting the NMB-evoked scratching behavior in wild type mice measured over 30 minutes after injection with 1 and 2 nmol of PD168268.
# (A) Number of scratches over time. (B) Comparison of cumulative number of scratches of the results shown in (A). PD168268 was injected at 2 nmol/mouse 10 min before GRP 1 nmol/mouse. p<0.01 (p=0.0072), t test, when the data in first 5 min was compared.
# (A) Number of scratches over time. (B) Comparison of cumulative number of scratches of the results shown in (A). […] One-way ANOVA followed by Newman-Keuls post hoc test.
# GRPR [6] = target: T2, GRPR; assay: Scratching induced by i.d. pruritogenic agents after i.t. GRPR antagonist; type: in vivo, mice; details: i.t. antagonist 10 min before i.d. injection of each pruritogenic agent; vs saline control
# GRPR [7] = target: T2, GRPR; design: species or system mice; details: in vivo
# GRPR [8] = target: T2, GRPR; type: in vivo, mice
# [9] = three days after i.t. 25 ng/5 μl
# [10] = antagonist 1.0 nmol i.t. vs vehicle
# T2 sequence (P21729 whole entry): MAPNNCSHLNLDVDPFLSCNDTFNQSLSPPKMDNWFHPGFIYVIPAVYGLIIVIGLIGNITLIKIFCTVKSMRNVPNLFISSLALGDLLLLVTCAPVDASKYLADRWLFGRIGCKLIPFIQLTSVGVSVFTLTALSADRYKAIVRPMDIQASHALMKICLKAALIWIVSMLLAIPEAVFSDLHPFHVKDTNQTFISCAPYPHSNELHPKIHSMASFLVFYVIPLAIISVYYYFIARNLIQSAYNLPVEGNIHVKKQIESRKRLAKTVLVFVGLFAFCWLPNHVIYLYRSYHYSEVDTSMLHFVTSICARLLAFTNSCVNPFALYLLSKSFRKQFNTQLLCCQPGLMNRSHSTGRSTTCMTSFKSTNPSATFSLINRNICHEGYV
# T1 sequence (Q704Y3 whole entry): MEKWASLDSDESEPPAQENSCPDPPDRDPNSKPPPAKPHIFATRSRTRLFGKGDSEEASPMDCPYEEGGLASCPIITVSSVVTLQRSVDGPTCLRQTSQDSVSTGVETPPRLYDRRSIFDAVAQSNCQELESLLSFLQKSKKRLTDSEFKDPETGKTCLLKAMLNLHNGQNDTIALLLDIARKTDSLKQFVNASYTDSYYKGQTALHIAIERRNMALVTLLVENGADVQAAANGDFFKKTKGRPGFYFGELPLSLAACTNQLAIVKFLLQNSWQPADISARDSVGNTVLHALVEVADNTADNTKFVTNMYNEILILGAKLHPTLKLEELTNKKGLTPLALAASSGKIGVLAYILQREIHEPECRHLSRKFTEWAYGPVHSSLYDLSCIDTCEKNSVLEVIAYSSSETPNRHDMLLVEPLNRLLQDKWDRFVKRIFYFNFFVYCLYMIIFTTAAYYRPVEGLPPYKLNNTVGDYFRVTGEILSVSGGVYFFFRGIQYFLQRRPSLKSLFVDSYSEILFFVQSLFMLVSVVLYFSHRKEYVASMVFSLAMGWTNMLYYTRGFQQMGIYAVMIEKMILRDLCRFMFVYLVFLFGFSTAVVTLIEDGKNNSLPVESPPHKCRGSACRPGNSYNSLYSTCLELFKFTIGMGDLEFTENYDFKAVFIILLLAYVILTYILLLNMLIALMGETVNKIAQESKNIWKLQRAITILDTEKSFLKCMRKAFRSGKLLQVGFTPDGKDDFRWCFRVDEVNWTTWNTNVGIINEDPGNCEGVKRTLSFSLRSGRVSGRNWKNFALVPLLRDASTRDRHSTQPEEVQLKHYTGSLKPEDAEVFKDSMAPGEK
compound,measurement,setting,value
C=C(C)[C@]12C[C@@H](C)[C@@]34O[C@](Cc5ccccc5)(O[C@@H]1[C@@H]3C=C(COC(=O)Cc1ccc(O)c(OC)c1)C[C@]1(O)C(=O)C(C)=C[C@@H]41)O2 [resiniferatoxin],motor function (rotarod),VR1 vanilloid receptor [1]; after RTX treatment,not affected
same,tail-flick latency,VR1 vanilloid receptor [1]; after RTX treatment,significantly increased
same,morphine-induced scratching behavior,"VR1 vanilloid receptor [1]; mouse, in vivo",significantly reduced
same,GRPR expression,VR1 vanilloid receptor [2]; after RTX treatment,remains normal
same,GRP+ fibers,VR1 vanilloid receptor [2]; [9],almost depleted
same,PKCγ (LIIi layer),VR1 vanilloid receptor [2]; [9],remains normal
same,TRPV1 signal,VR1 vanilloid receptor [2]; [9],almost lost
same,non-peptidergic primary fibers labeled by IB4-FITC,VR1 vanilloid receptor [2]; [9],normal
same,peptidergic fibers labeled by CGRP,VR1 vanilloid receptor [2]; [9],largely diminished
neuromedin B [NMB],response to intrathecal bombesin-like peptides,NMBR/GRPR,deficits
"GRP: gastrin-releasing peptide, bombesin-like peptide given intrathecally (VPLPAGGGTVLTKMYPRGNHWAVGHLM; ends and bridges not checked; UniProt P07492 24-50, looked up)",response to intrathecal bombesin-like peptides,NMBR/GRPR,deficits
"GRP18-27: GRPR agonist, intrathecally administered",scratching behavior after i.t. GRP18-27,"GRPR [3]; wild-type mice, i.t. 0.03, 0.1 or 1.0 nmol/5 μl",increased scratching behavior was found in a dose-dependent manner
same,number of scratching behaviors after i.t. GRP18-27,GRPR [4],significantly lower
"NCCc1c[nH]c2c(O)cc(O)cc12 [5,7-DHT]",morphine-induced scratching behavior,5-HT fibers,"reduces, but does not eliminate scratching behavior"
SLIGRL-NH2,"scratching behavior induced by i.d. injection, GRPR mutant vs wild-type mice",GRPR [5],significantly reduced
endothelin-1: exerts its pruritic effect through ETA receptors,"scratching behavior induced by i.d. injection, GRPR mutant vs wild-type mice",GRPR [5],normal scratching behaviors
same,response to i.d. pruritogens,NMBR/GRPR,deficits
C[C@@](Cc1c[nH]c2ccccc12)(NC(=O)Nc1ccc([N+](=O)[O-])cc1)C(=O)NCC1(c2ccccn2)CCCCC1 [PD168268],GRP-induced scratching behaviors,NMBR; 2 nmol/mouse 10 min before GRP 1 nmol/mouse,inhibited
same,NMB-induced scratching behaviors,"NMBR; i.t. 1 or 2 nM/mouse 10 minutes before 2 nM/mouse of NMB, wild type mice",inhibited
same,chloroquine-induced scratching behaviors,NMBR; i.t. 10 minutes before i.d. chloroquine 200 μg/mouse in 50 μL,inhibited
"NCCc1c[nH]c2ccc(O)cc12 [5-HT, serotonin]","scratching behavior induced by i.d. injection, GRPR mutant vs wild-type mice",GRPR [5],normal scratching behaviors
same,response to i.d. pruritogens,NMBR/GRPR,deficits
NCCc1c[nH]cn1 [histamine],"scratching behavior induced by i.d. injection, GRPR mutant vs wild-type mice",GRPR [5],either not significantly affected or modestly reduced
same,response to i.d. pruritogens,NMBR/GRPR,deficits
D-Phe-6-Bn(6-13)OMe,GRP18-27-induced scratching behavior,"GRPR [3]; i.t. antagonist 1.0 nmol/2.5 μl, GRP18-27 1.0 nmol/2.5 μl, vs vehicle",significantly inhibited
same,scratching behavior induced by i.d. pruritogenic agents,GRPR [6],significant reduction of the scratching behavior
same,scratching induced by intrathecal morphine,GRPR [7],significantly blocked
same,mechanical thresholds,GRPR [8]; [10],not significantly affected
same,tailflick latency,GRPR [8]; [10],comparable
same,analgesic effect of intrathecal morphine,"GRPR [8]; morphine 0.3 nmol/5 μl, antagonist 1.0 nmol, vs vehicle",not significantly affected
CCN(CC)CCCC(C)Nc1ccnc2cc(Cl)ccc12 (stereo not shown) [chloroquine],response to i.d. pruritogens,NMBR/GRPR,deficits
